Source: patent publication US20110229580A1, “COMPOSITIONS AND METHODS FOR NANO-IN-MICRO PARTICLES” (Indian Institute of Technology Bombay, School of …, priority 2010, published 2011)

Assay: Confocal laser scanning microscopy of dye retention in CaCO3 nanoparticles
Assay type: physicochemical
Conditions: CLSM
From the text: Fluorescent images of FITC-dex (70 kDa) loaded CaCO3 nanoparticles were examined using confocal microscopy. Confocal micrographs of micro/nanoparticles were obtained with a flow view confocal laser scanning microscope (CLSM) equipped with a krypton-argon laser (Olympus FluoView™, Japan). An inverted microscope was also used which was equipped with an oil immersion objective lens (40×). The standard filter settings for fluorescence excitation (488 nm) and emission (520 nm) were used.

- retention in CaCO3 nanoparticles: not retained
Structure (SMILES): O=C1OC2(c3ccc(O)cc3Oc3cc(O)ccc32)c2ccc(N=C=S)cc21 [FITC dye]
